pKi: −log10 of the molar value. *1 amine or outer side, *2 acyl side, *3 side chain or, on linkers, in order; H or OH if unused. Where a SMILES comes first, the peptide text is derived from it. Side-chain parts run from the residue outwards. The star is where a group is joined. C18 diacid = O=C(O)CCCCCCCCCCCCCCCCC(=O)*; γGlu = O=C(O)[C@H](CCC(=O)[*:2])N[*:1]; Isovaleryl = CC(C)CC(=O)*; Ahx = NCCCCCC(=O)O
Key:
Solubility determination = conditions: for Sol6: pH 6; for Sol7: pH 7
In short: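 Sample: TFA-salt peptide at 10 mg/ml target in 0.1 M Na diphosphate, pH 6.4 or 7.0, shaken 2 h RT, filtered, diluted to 1 mg/ml.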

[1] = biological target: T1, Human Neuropeptide Y2 Receptor (Homo sapiens, UniProt P49146); test: Radioligand binding competition assay (RLB); conditions: Table 3, 125I-PYY(1-36) competition; read-out: Ki
T1 construct: purchased CHEMICON HTS066M
T1 sequence (P49146 1-381): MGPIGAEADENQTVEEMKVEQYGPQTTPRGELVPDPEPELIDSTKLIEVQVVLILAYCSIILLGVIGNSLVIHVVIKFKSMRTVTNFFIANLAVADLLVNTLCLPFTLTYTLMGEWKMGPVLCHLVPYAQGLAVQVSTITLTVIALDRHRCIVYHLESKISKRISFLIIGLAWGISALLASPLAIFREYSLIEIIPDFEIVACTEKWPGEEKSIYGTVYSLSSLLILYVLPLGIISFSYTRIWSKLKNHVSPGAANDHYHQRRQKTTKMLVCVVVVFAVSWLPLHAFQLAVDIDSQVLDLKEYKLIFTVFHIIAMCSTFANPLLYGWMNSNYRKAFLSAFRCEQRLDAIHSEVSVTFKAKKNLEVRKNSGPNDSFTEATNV
In short: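 Displacement of radioligand is measured after 2 h at room temperature with receptor membranes in Mg2+/Ca2+ HEPES buffer, pH 7.4. Filter-bound radioactivity is counted and IC50 obtained from curve fitting.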

SMILES	Sol6 (Solubility determination)	Sol7 (Solubility determination)	pKi [1]
CC(C)CC(=O)N[C@@H](C)C(=O)N1CCC[C@H]1C(=O)N[C@@H](CCC(=O)O)C(=O)N[C@@H](CCCCNC(=O)CCCCCNC(=O)CC[C@H](NC(=O)CCCCCCCCCCCCCCCCC(=O)O)C(=O)O)C(=O)N1CCC[C@H]1C(=O)N1CCC[C@H]1C(=O)N[C@@H](C)C(=O)N[C@@H](CC(=O)O)C(=O)N[C@@H](C)C(=O)N[C@@H](CO)C(=O)N1CCC[C@H]1C(=O)N[C@@H](CCC(=O)O)C(=O)N[C@@H](CCC(=O)O)C(=O)N[C@H](C(=O)N[C@@H](CCC(N)=O)C(=O)N[C@@H](CCCNC(=N)N)C(=O)N[C@@H](Cc1ccc(O)cc1)C(=O)N[C@@H](Cc1ccc(O)cc1)C(=O)N[C@H](C(=O)N[C@@H](CO)C(=O)N[C@@H](CC(C)C)C(=O)N[C@@H](CCCNC(=N)N)C(=O)N[C@@H](Cc1c[nH]cn1)C(=O)N[C@@H](Cc1ccc(O)cc1)C(=O)N[C@@H](Cc1ccc(O)cc1)C(=O)N[C@@H](CC(N)=O)C(=O)N[C@@H](Cc1c[nH]c2ccccc12)C(=O)N[C@@H](CC(C)C)C(=O)N[C@H](C(=O)N[C@@H](CCCNC(=N)N)C(=O)N[C@@H](CCC(N)=O)C(=O)N[C@@H](CCCNC(=N)N)C(=O)N[C@@H](Cc1ccc(O)cc1)C(N)=O)[C@@H](C)O)C(C)C)[C@@H](C)O [Compound 69, N{alpha-4}-(3-methylbutanoyl)-N{epsilon-7}-(6-[(4S)-4-carboxy-4-(17-carboxyheptadecanamido)butanamido]hexanoyl)-[4A,7K,9P,10A,17T,18Q,22V,28Y,30W,31L]-hPYY(4-36)] (Isovaleryl-APEK([Ahx-γGlu-C18 diacid])PPADASPEETQRYYVSLRHYYNWLTRQRY-NH2)	0.1 mg/mL	9.5 mg/mL	9.27
CC(C)CC(=O)N[C@@H](C)C(=O)N1CCC[C@H]1C(=O)N[C@@H](CCC(=O)O)C(=O)N[C@@H](CCCCNC(=O)CCCCCNC(=O)CC[C@H](NC(=O)CCCCCCCCCCCCCCCCC(=O)O)C(=O)O)C(=O)N1CCC[C@H]1C(=O)N[C@@H](CCC(=O)O)C(=O)N[C@@H](CCC(=O)O)C(=O)N[C@@H](CC(=O)O)C(=O)N[C@@H](C)C(=O)N[C@H](C(=O)N1CCC[C@H]1C(=O)N[C@@H](CCC(=O)O)C(=O)N[C@@H](CCC(=O)O)C(=O)N[C@@H](CC(C)C)C(=O)N[C@@H](CCC(N)=O)C(=O)N[C@@H](C)C(=O)N[C@@H](Cc1ccc(O)cc1)C(=O)N[C@@H](Cc1ccc(O)cc1)C(=O)N[C@H](C(=O)N[C@@H](CO)C(=O)N[C@@H](CC(C)C)C(=O)N[C@@H](CCCNC(=N)N)C(=O)N[C@@H](Cc1c[nH]cn1)C(=O)N[C@@H](Cc1ccc(O)cc1)C(=O)N[C@@H](Cc1ccc(O)cc1)C(=O)N[C@@H](CC(N)=O)C(=O)N[C@@H](Cc1c[nH]c2ccccc12)C(=O)N[C@@H](CC(C)C)C(=O)N[C@H](C(=O)N[C@@H](CCCNC(=N)N)C(=O)N[C@@H](CCC(N)=O)C(=O)N[C@@H](CCCNC(=N)N)C(=O)N[C@@H](Cc1ccc(O)cc1)C(N)=O)[C@@H](C)O)C(C)C)[C@@H](C)O [Compound 95, N{alpha-4}-(3-methylbutanoyl)-N{epsilon-7}-(6-[(4S)-4-carboxy-4-(17-carboxyheptadecanamido)butanamido]hexanoyl)-[4A,7K,9E,13T,18Q,19A,22V,28Y,30W,31L]-hPYY(4-36)]	8.9 mg/mL	7.9 mg/mL	8.53
CC[C@H](C)[C@H](NC(=O)[C@H](CCC(=O)O)NC(=O)[C@H](CCC(=O)O)NC(=O)[C@@H]1CCCN1C(=O)[C@H](CCC(=O)O)NC(=O)[C@H](C)NC(=O)[C@H](CC(=O)O)NC(=O)[C@H](CCC(=O)O)NC(=O)[C@H](CCC(=O)O)NC(=O)[C@@H]1CCCN1C(=O)[C@H](CCCCNC(=O)CCCCCNC(=O)CC[C@H](NC(=O)CCCCCCCCCCCCCCCCC(=O)O)C(=O)O)NC(=O)[C@H](CCC(=O)O)NC(=O)[C@@H]1CCCN1C(=O)[C@H](C)NC(=O)CC(C)C)C(=O)N[C@@H](CCC(N)=O)C(=O)N[C@@H](CCCNC(=N)N)C(=O)N[C@@H](Cc1ccc(O)cc1)C(=O)N[C@@H](Cc1ccc(O)cc1)C(=O)N[C@H](C(=O)N[C@@H](CO)C(=O)N[C@@H](CC(C)C)C(=O)N[C@@H](CCCNC(=N)N)C(=O)N[C@@H](Cc1c[nH]cn1)C(=O)N[C@@H](Cc1ccc(O)cc1)C(=O)N[C@@H](Cc1ccc(O)cc1)C(=O)N[C@@H](CC(N)=O)C(=O)N[C@@H](Cc1c[nH]c2ccccc12)C(=O)N[C@@H](CC(C)C)C(=O)N[C@H](C(=O)N[C@@H](CCCNC(=N)N)C(=O)N[C@@H](CCC(N)=O)C(=O)N[C@@H](CCCNC(=N)N)C(=O)N[C@@H](Cc1ccc(O)cc1)C(N)=O)[C@@H](C)O)C(C)C [Compound 112, N{alpha-4}-(3-methylbutanoyl)-N{epsilon-7}-(6-[(4S)-4-carboxy-4-(17-carboxyheptadecanamido)butanamido]hexanoyl)-[4A,7K,9E,13E,17I,18Q,22V,28Y,30W,31L]-hPYY(4-36)]	9.9 mg/mL	10.0 mg/mL	8.37
CC(C)CC(=O)N[C@@H](C)C(=O)N1CCC[C@H]1C(=O)N[C@@H](CCC(=O)O)C(=O)N[C@@H](CCCCNC(=O)CCCCCNC(=O)CC[C@H](NC(=O)CCCCCCCCCCCCCCCCC(=O)O)C(=O)O)C(=O)N1CCC[C@H]1C(=O)N[C@@H](CCC(=O)O)C(=O)N[C@@H](CCC(=O)O)C(=O)N[C@@H](CC(=O)O)C(=O)N[C@@H](C)C(=O)N[C@@H](CCC(=O)O)C(=O)N1CCC[C@H]1C(=O)N[C@@H](CCC(=O)O)C(=O)N[C@@H](CCC(=O)O)C(=O)N[C@@H](CC(C)C)C(=O)N[C@@H](CCC(N)=O)C(=O)N[C@@H](CCCNC(=N)N)C(=O)N[C@@H](Cc1ccc(O)cc1)C(=O)N[C@@H](Cc1ccc(O)cc1)C(=O)N[C@H](C(=O)N[C@@H](CO)C(=O)N[C@@H](CC(C)C)C(=O)N[C@@H](CCCNC(=N)N)C(=O)N[C@@H](Cc1c[nH]cn1)C(=O)N[C@@H](Cc1ccc(O)cc1)C(=O)N[C@@H](Cc1ccc(O)cc1)C(=O)N[C@@H](CC(N)=O)C(=O)N[C@@H](Cc1c[nH]c2ccccc12)C(=O)N[C@@H](CC(C)C)C(=O)N[C@H](C(=O)N[C@@H](CCCNC(=N)N)C(=O)N[C@@H](CCC(N)=O)C(=O)N[C@@H](CCCNC(=N)N)C(=O)N[C@@H](Cc1ccc(O)cc1)C(N)=O)[C@@H](C)O)C(C)C [Compound 126, N{alpha-4}-(3-methylbutanoyl)-N{epsilon-7}-(6-[(4S)-4-carboxy-4-(17-carboxyheptadecanamido)butanamido]hexanoyl)-[4A,7K,9E,13E,18Q,22V,28Y,30W,31L]-hPYY(4-36)]	9.6 mg/mL	8.8 mg/mL	8.35
CC[C@H](C)[C@H](NC(=O)[C@H](Cc1ccc(O)cc1)NC(=O)[C@H](Cc1ccc(O)cc1)NC(=O)[C@H](CCCNC(=N)N)NC(=O)[C@H](CCC(N)=O)NC(=O)[C@H](CC(C)C)NC(=O)[C@H](CCC(=O)O)NC(=O)[C@H](CCC(=O)O)NC(=O)[C@@H]1CCCN1C(=O)[C@H](CCC(=O)O)NC(=O)[C@H](C)NC(=O)[C@H](CC(=O)O)NC(=O)[C@H](CCC(=O)O)NC(=O)[C@H](CCC(=O)O)NC(=O)[C@@H]1CCCN1C(=O)[C@H](CCCCNC(=O)CCCCCNC(=O)CC[C@H](NC(=O)CCCCCCCCCCCCCCCCC(=O)O)C(=O)O)NC(=O)[C@H](C)NC(=O)[C@@H]1CCCN1C(=O)[C@H](C)NC(=O)CC(C)C)C(=O)N[C@@H](CO)C(=O)N[C@@H](CC(C)C)C(=O)N[C@@H](CCCNC(=N)N)C(=O)N[C@@H](Cc1c[nH]cn1)C(=O)N[C@@H](Cc1ccc(O)cc1)C(=O)N[C@@H](Cc1ccc(O)cc1)C(=O)N[C@@H](CC(N)=O)C(=O)N[C@@H](Cc1c[nH]c2ccccc12)C(=O)N[C@@H](CC(C)C)C(=O)N[C@H](C(=O)N[C@@H](CCCNC(=N)N)C(=O)N[C@@H](CCC(N)=O)C(=O)N[C@@H](CCCNC(=N)N)C(=O)N[C@@H](Cc1ccc(O)cc1)C(N)=O)[C@@H](C)O [Compound 33, N{alpha-4}-(3-methylbutanoyl)-N{epsilon-7}-(6-[(4S)-4-carboxy-4-(17-carboxyheptadecanamido)butanamido]hexanoyl)[4A,6A,7K,9E,13E,18Q,22I,28Y,30W,31L]-hPYY(4-36)]	7.2 mg/mL	8.3 mg/mL	8.60
CC(C)CC(=O)N[C@@H](C)C(=O)N1CCC[C@H]1C(=O)N[C@@H](CCC(=O)O)C(=O)N[C@@H](CCCCNC(=O)CCCCCNC(=O)CC[C@H](NC(=O)CCCCCCCCCCCCCCCCC(=O)O)C(=O)O)C(=O)N1CCC[C@H]1C(=O)N[C@@H](CCC(=O)O)C(=O)N[C@@H](CCC(=O)O)C(=O)N[C@@H](CC(=O)O)C(=O)N1CCC[C@H]1C(=O)N[C@H](C(=O)N1CCC[C@H]1C(=O)N[C@@H](CCC(=O)O)C(=O)N[C@@H](CCC(=O)O)C(=O)N[C@@H](CC(C)C)C(=O)N[C@@H](CCC(N)=O)C(=O)N[C@@H](CCCNC(=N)N)C(=O)N[C@@H](Cc1ccc(O)cc1)C(=O)N[C@@H](Cc1ccc(O)cc1)C(=O)N[C@H](C(=O)N[C@@H](CO)C(=O)N[C@@H](CC(C)C)C(=O)N[C@@H](CCCNC(=N)N)C(=O)N[C@@H](Cc1c[nH]cn1)C(=O)N[C@@H](Cc1ccc(O)cc1)C(=O)N[C@@H](Cc1ccc(O)cc1)C(=O)N[C@@H](CC(N)=O)C(=O)N[C@@H](Cc1c[nH]c2ccccc12)C(=O)N[C@@H](CC(C)C)C(=O)N[C@H](C(=O)N[C@@H](CCCNC(=N)N)C(=O)N[C@@H](CCC(N)=O)C(=O)N[C@@H](CCCNC(=N)N)C(=O)N[C@@H](Cc1ccc(O)cc1)C(N)=O)[C@@H](C)O)C(C)C)[C@@H](C)O [Compound 22, N{alpha-4}-(3-methylbutanoyl)-N{epsilon-7}-(6-[(4S)-4-carboxy-4-(17-carboxyheptadecanamido)butanamido]hexanoyl)[4A,7K,9E,12P,13T,18Q,22V,28Y,30W,31L]-hPYY(4-36)]	9.7 mg/mL	9.8 mg/mL	8.30

From patent publication US12391737B2, “Soluble NPY2 receptor agonists” (Boehringer Ingelheim International GmbH, priority 2020, dated 2025)
